From US11000501B2, “Composition for preventing or treating neurological and mental disorders, containing syringaresinol” (SEOUL NATIONAL UNIVERSITY R&DB FOUNDATION, priority 2016, dated 2021)

Tested on: Schaffer collateral (SC)-CA1 synapse of the hippocampus
Experiment: fEPSP recording in hippocampal SC-CA1 synapse (hippocampal slices)
Format: cell-based, mouse
Settings: 10 μM, applied after SYR
Experimental: A hippocampus slice (400 μm thick) was prepared in a cold dissection buffer using a vibrating machine (Vibratome, Leica, Germany) and then a CA3 region of each slice was removed surgically immediately after the slice formation. In this connection, the cold dissection buffer contained sucrose 230 mM; NaHCO3 25 mM; KCl 2.5 mM; NaH2PO4 1.25 mM; D-glucose 10 mM; Na-ascorbic acid salt 1.3 mM; MgCl2 3 mM; CaCl2 0.5 mM, 95% O2/5% CO2 and had pH 7.4. The slice was recovered in a normal ACSF (artificial cerebrospinal fluid) for 1 hour and then maintained at room temperature (23 to 25° C.) until recording. […] All electrophysiological experiments were performed in a recording chamber while the samples were immersed in the solution in a manner described previously (Song et al., 2017). Signals were amplified using a MultiClamp 700B amplifier (Molecular Devices, CA, USA) at a cut-off frequency of 2.8 kHz and were measured with a Digidata 1440A interface (Molecular Devices) at a 10 kHz sampling frequency. Data were collected using pClamp 10.2 (Molecular Devices) software. The collected data were analyzed with a program created in the lab using Igor Pro (WaveMetrics, OR, USA). To record the field excitatory post-synaptic potential (fEPSP) in the hippocampal SC-CA1 synapse, hippocampal slices were placed in the recording chamber and perfused with ACSF while oxygen was fed continuously to the ACSF. The ACSF was maintained at a temperature of 29 to 30° C. using a heater for perfusion (SH-27B, Warner Instruments, CT, USA). A synapse response was induced by stimulation with a glass pipette (0.3 to 0.5 Mohm) every 20 seconds (0.05 Hz). The synapse response was recorded using a glass pipette (3 to 4 Mohm) filled with ACSF. The intensity of the stimulus was adjusted to produce a synapse response of about ⅓ of the maximum value thereof. The slices with unstable (10%) baseline records were excluded. To investigate the effect of syringaresinol (SYR) on the synaptic transmission, the field excitatory post-synaptic potential (fEPSP) of the Schaffer collateral (SC)-CA1 synapse of the hippocampus of adult mice (4 to 6 weeks of age) was measured. After confirming the stable baseline, different concentrations of SYR were applied thereto using the perfusion solution.

Q: NS(=O)(=O)c1cccc2c1c([N+](=O)[O-])cc1nc(O)c(O)nc12 [NBQX, reference compound] was tested. Which “block of the synaptic response (fEPSP)” value did it give?
A: completely blocked
